{
  "source": "paper PMC11873635",
  "about": "(Acta Pharmaceutica Sinica. B, 2024)",
  "key": {"human SMS2": {"molecular_target": "T1, human SMS2 (Homo sapiens, UniProt Q8NHU3)", "T1 sequence (Q8NHU3 1-365)": "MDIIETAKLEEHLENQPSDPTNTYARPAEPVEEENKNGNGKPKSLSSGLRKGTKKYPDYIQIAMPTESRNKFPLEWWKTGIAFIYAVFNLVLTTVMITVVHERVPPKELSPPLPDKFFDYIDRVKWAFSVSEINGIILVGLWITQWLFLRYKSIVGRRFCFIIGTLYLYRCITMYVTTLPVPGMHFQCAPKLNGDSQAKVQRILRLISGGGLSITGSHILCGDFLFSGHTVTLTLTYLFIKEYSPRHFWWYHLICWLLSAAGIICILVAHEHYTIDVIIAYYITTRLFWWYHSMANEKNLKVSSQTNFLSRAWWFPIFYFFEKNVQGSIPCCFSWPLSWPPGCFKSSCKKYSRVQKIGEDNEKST", "experiment": "purified SMS enzyme inhibitory assay in vitro", "type": "biochemical"}, "human SMS1": {"molecular_target": "T2, human SMS1 (Homo sapiens, UniProt Q86VZ5)", "T2 sequence (Q86VZ5 1-413)": "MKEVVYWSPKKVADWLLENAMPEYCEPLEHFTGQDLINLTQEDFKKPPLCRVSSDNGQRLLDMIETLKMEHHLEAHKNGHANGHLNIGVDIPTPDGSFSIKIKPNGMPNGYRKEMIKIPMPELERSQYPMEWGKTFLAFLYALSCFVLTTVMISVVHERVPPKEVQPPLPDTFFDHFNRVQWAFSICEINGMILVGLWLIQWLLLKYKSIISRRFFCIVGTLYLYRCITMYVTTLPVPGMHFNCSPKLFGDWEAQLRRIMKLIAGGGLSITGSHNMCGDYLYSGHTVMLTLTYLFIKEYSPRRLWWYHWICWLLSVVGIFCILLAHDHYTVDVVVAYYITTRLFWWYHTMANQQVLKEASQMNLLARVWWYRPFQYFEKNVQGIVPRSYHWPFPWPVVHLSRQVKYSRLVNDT", "experiment": "purified SMS enzyme inhibitory assay in vitro", "type": "biochemical"}, "[1]": {"tested_on": "human corneal epithelial cells (HCEC)", "experiment": "Cell viability and toxicity assay", "type": "cell-based", "details": "within 25 μmol/L; 48 h"}, "[2]": {"tested_on": "SM synthesis (SMS activity) in HCEC", "experiment": "Cellular SM synthesis inhibitory assay in HCEC", "type": "cell-based, human", "details": "for EC50: Homo sapiens, HCEC, read-out: SM synthesis inhibitory EC50 in HCEC"}, "[3]": {"tested_on": "TNF-α protein expression in HCEC", "experiment": "Western blot of TNF-α protein expression in HCEC under hyperosmotic stress", "type": "cell-based, human", "details": "1 μmol/L; hyperosmotic 550 mOsm"}, "[4]": {"tested_on": "TNFR1-Caspase3 activation in HCEC", "experiment": "Western blot of TNFR1, caspase3 and cleaved-caspase3 in HCEC", "type": "cell-based, human", "details": "14l 1/3 and 1 μmol/L; TNF-α 10 ng/mL, 550 mOsm"}, "murine DED model [5]": {"tested_on": "murine DED model", "experiment": "Corneal fluorescein staining in murine DED model", "type": "in vivo, C57BL/6 mice", "details": "DED mice; 14l low dose 0.001% twice a day for 7 days"}, "murine DED model [6]": {"tested_on": "murine DED model", "experiment": "Tear volume measurement", "type": "in vivo, C57BL/6 mice", "details": "DED mice"}, "[7]": {"tested_on": "Tnf-α, Il-1β and Mmp-9 mRNA in mouse corneas", "experiment": "Quantitative PCR analysis of mouse corneas", "type": "in vivo, C57BL/6 mice", "details": "DED mice, twice a day for 7 days"}, "[8]": {"tested_on": "lipid content of meibomian glands", "experiment": "LC-MS/MS lipidomic analysis of murine meibomian gland tissue", "type": "in vivo, C57BL/6 mice", "details": "DED mice"}, "[9]": {"tested_on": "human corneal epithelial cells (HCEC)", "details": "1 μmol/L; TNF-α (10 ng/mL), 550 mOsm; after incubation for 3 h"}, "[10]": {"tested_on": "human corneal epithelial cells (HCEC)", "details": "14l 1/3 and 1 μmol/L, CsA 1 μmol/L; TNF-α 10 ng/mL, 550 mOsm, 5 h"}, "[11]": {"details": "SD rats"}, "[12]": {"tested_on": "human corneal epithelial cells (HCEC)", "experiment": "cells", "details": "24 h, read-out: EC50 of protective effect on HCEC viability"}, "in vivo": {"experiment": "in vivo", "details": "male, SD, rat, topical or ocular, 16 ug"}, "[13]": {"details": "14l 0.001% and 0.025%, CsA 0.05%"}, "[14]": {"details": "Conjunctiva, single drop 16 μg/eye"}, "[15]": {"details": "Meibomian glands, single drop 16 μg/eye"}},
  "note": "Where two headings read alike, the source gives them in different places.",
  "data": [
    {"smiles": "CCCCCCCCOc1ccccc1COc1ccsc1C(=O)Nc1cccnc1", "note": "[14l, 3-((2-(Octyloxy)benzyl)oxy)-N-(pyridin-3-yl)thiophene-2-carboxamide]", "values": [
      {"measurement": "IC50", "setting": "human SMS2", "result": 28, "unit": "nM"},
      {"measurement": "Selectivity ratio", "setting": "human SMS2; IC50, SMS1/IC50, SMS2", "result": 589},
      {"measurement": "LLE", "setting": "human SMS2; pIC50, SMS2 – ClogP", "result": 2.21},
      {"measurement": "inhibition at 1 µM", "setting": "human SMS2; read-out: SMS2 Inhibition @ 1 μmol/L (%)", "result": 95, "unit": "%"},
      {"measurement": "IC50", "setting": "human SMS1", "result": 16000, "unit": "nM"},
      {"measurement": "inhibition at 100 µM", "setting": "human SMS1; read-out: SMS1 Inhibition @ 100 μmol/L (%)", "result": 87, "unit": "%"},
      {"measurement": "HCEC viability (MTT)", "setting": "[1]", "result": "less influence on the cell viability"},
      {"measurement": "effect on SMS activity of HCEC", "setting": "[2]; 1 μmol/L", "result": "efficient SMS inhibitory activities"},
      {"measurement": "EC50", "setting": "[2]; 6 h", "result": 300, "unit": "nM"},
      {"measurement": "EC50", "setting": "[2]", "result": 0.131, "unit": "µg/mL"},
      {"measurement": "TNF-α protein expression", "setting": "[3]", "result": "inhibited TNF-α protein expression"},
      {"measurement": "TNF-α-induced TNFR1-Caspase3 activation", "setting": "[4]", "result": "effectively prevent TNF-α-induced TNFR1-Caspase3 activation"},
      {"measurement": "corneal fluorescein scores, 14l low dose", "setting": "murine DED model [5]", "result": "higher than the two other treatment groups but lower than the DED control group"},
      {"measurement": "tear volume (Schirmer's test)", "setting": "murine DED model [6]; 14l high dose 0.025% or CsA (Zirun®) 0.05%, twice a day for 7 days", "result": "improved significantly"},
      {"measurement": "tear volume (Schirmer's test), 14l low dose", "setting": "murine DED model [6]; 14l low dose 0.001% twice a day for 7 days", "result": "not in 14l low dose group"},
      {"measurement": "Mmp-9 mRNA expression in cornea", "setting": "[7]; [13]", "result": "decreased significantly in all treatment groups"},
      {"measurement": "Tnf-α mRNA expression in cornea", "setting": "[7]; [13]", "result": "decreased significantly in all treatment groups"},
      {"measurement": "Il-1β mRNA expression in cornea", "setting": "[7]; 14l high dose 0.025% or CsA 0.05%", "result": "reduced only in 14l high dose group and CsA treatment group"},
      {"measurement": "levels of triglycerides (TG) and cholesterol esters (ChE) in meibomian glands", "setting": "[8]; all treatment groups", "result": "not impacted in all treatment groups"},
      {"measurement": "proportion of very long chain SM species in meibomian glands", "setting": "[8]; eye drops twice a day for 7 days", "result": "reduced the proportion of very long chain SM species"},
      {"measurement": "ceramide content in meibomian glands", "setting": "[8]; high dosage of 14l (0.025%)", "result": "did not induce an extreme increase and accumulation for ceramide"},
      {"measurement": "time-dependent protective effect in HCEC", "setting": "[9]", "result": "apparent and durative protective effect"},
      {"measurement": "HCEC population integrity and early apoptosis proportion", "setting": "[10]", "result": "a higher integrity of HCEC population and a less early apoptosis proportion"},
      {"measurement": "AUC0‒t", "setting": "[11]; [14]", "result": 489.73, "unit": "ng·h/g"},
      {"measurement": "AUC0‒∞", "setting": "[11]; [14]", "result": 564.99, "unit": "ng·h/g"},
      {"measurement": "AUC0‒t", "setting": "[11]; Cornea, single drop 16 μg/eye", "result": 4339.41, "unit": "ng·h/g"},
      {"measurement": "AUC0‒∞", "setting": "[11]; Cornea, single drop 16 μg/eye", "result": 4567.46, "unit": "ng·h/g"},
      {"measurement": "AUC0‒t", "setting": "[11]; [15]", "result": 14379.61, "unit": "ng·h/g"},
      {"measurement": "AUC0‒∞", "setting": "[11]; [15]", "result": 14670.67, "unit": "ng·h/g"},
      {"measurement": "adverse effect during the PK study", "setting": "[11]; single drop 16 μg/eye", "result": "No adverse effect"},
      {"measurement": "detection in blood and retina", "setting": "[11]; single drop 16 μg/eye", "result": "not detected in the blood and retina"},
      {"measurement": "ocular tissue distribution", "setting": "[11]; single drop 16 μg/eye in 50% HP-β-CD", "result": "distributed mainly in the meibomian glands, conjunctiva and cornea"},
      {"measurement": "EC50", "setting": "[12]", "result": 611, "unit": "nM"},
      {"measurement": "Cmax", "setting": "in vivo; conjunctiva", "result": 358, "unit": "ng/g"},
      {"measurement": "Tmax", "setting": "in vivo; conjunctiva", "result": 0.25, "unit": "h"},
      {"measurement": "half-life", "setting": "in vivo; conjunctiva", "result": 1.3, "unit": "h"},
      {"measurement": "Cmax", "setting": "in vivo; cornea", "result": 3050, "unit": "ng/g"},
      {"measurement": "Tmax", "setting": "in vivo; cornea", "result": 1, "unit": "h"},
      {"measurement": "half-life", "setting": "in vivo; cornea", "result": 1.11, "unit": "h"},
      {"measurement": "Cmax", "setting": "in vivo; meibomian glands", "result": 2730, "unit": "ng/g"},
      {"measurement": "Tmax", "setting": "in vivo; meibomian glands", "result": 1, "unit": "h"},
      {"measurement": "half-life", "setting": "in vivo; meibomian glands", "result": 4.32, "unit": "h"}
    ]}
  ]
}
